Source: the supplement of paper PMC10883282

Key:
Assay in all cases: relative viability vs DMSO control (72 h) (fraction); higher = more viable cells
[1] = test system: SW872
In short: (§1)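 Relative viability is percent growth read by ATPLite and averaged over up to triplicate wells. Sarcoma cells were seeded in 384-well plates to reach 80–90% confluence and given 2.5 µl of serially diluted compound after 24 h, from source plates of 10 mM to 0.0002 mM. Incubation lasted 72 h at 37 °C, 5% CO2, with 0.1% DMSO vehicle and a 5 µM positive control, and the data were rescaled so 1 equals full and 0 equals none.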

[2] = test system: SYO-1
In short: as §1

[3] = test system: KHOS-NP
In short: as §1

[4] = test system: HS729
In short: as §1

[5] = test system: A204
In short: as §1

[6] = test system: MES-SA
In short: as §1

[7] = test system: SK-ES-1
In short: as §1

[8] = test system: G401
In short: as §1

[9] = test system: SK-LMS-1
In short: as §1

[10] = test system: SW684
In short: as §1

[11] = test system: VA-ES-BJ
In short: as §1

[12] = test system: RD
In short: as §1

C#Cc1cccc(Nc2ncnc3cc4c(cc23)OCCOCCOCCO4)c1 [Icotinib]
Conditions	relative viability
[1], 0.00017 µM	1.14
[1], 0.00051 µM	1.14
[1], 0.00152 µM	1.11
[1], 0.00457 µM	1.108
[1], 0.01372 µM	1.11
[1], 0.04115 µM	1.09
[1], 0.1235 µM	1.08
[1], 0.3704 µM	1.07
[1], 1.111 µM	1.06
[1], 3.333 µM	1.04
[1], 10 µM	1.03
[2], 0.00017 µM	1.01
[2], 0.00051 µM	1.03
[2], 0.00152 µM	1.01
[2], 0.00457 µM	0.968
[2], 0.01372 µM	0.989
[2], 0.04115 µM	0.979
[2], 0.1235 µM	0.982
[2], 0.3704 µM	0.98
[2], 1.111 µM	0.966
[2], 3.333 µM	0.892
[2], 10 µM	0.855
[3], 0.00017 µM	1.083
[3], 0.00051 µM	1.09
[3], 0.00152 µM	1.08
[3], 0.00457 µM	1.09
[3], 0.01372 µM	1.09
[3], 0.04115 µM	1.09
[3], 0.1235 µM	1.08
[3], 0.3704 µM	1.09
[3], 1.111 µM	1.096
[3], 3.333 µM	1.08
[3], 10 µM	1.07
[4], 0.00017 µM	1.08
[4], 0.00051 µM	1.091
[4], 0.00152 µM	1.01
[4], 0.00457 µM	1
[4], 0.01372 µM	0.99
[4], 0.04115 µM	0.99
[4], 0.1235 µM	0.97
[4], 0.3704 µM	0.971
[4], 1.111 µM	0.957
[4], 3.333 µM	0.892
[4], 10 µM	0.8227
[5], 0.00017 µM	1.07
[5], 0.00051 µM	1.08
[5], 0.00152 µM	1.11
[5], 0.00457 µM	1.13
[5], 0.01372 µM	1.071
[5], 0.04115 µM	1.12
[5], 0.1235 µM	1.09
[5], 0.3704 µM	1.07
[5], 1.111 µM	0.967
[5], 3.333 µM	0.947
[5], 10 µM	0.877
[6], 0.00017 µM	0.972
[6], 0.00051 µM	0.945
[6], 0.00152 µM	0.958
[6], 0.00457 µM	0.937
[6], 0.01372 µM	0.936
[6], 0.04115 µM	0.952
[6], 0.1235 µM	0.952
[6], 0.3704 µM	0.922
[6], 1.111 µM	0.912
[6], 3.333 µM	0.869
[6], 10 µM	0.8
[7], 0.00017 µM	1.03
[7], 0.00051 µM	1.06
[7], 0.00152 µM	1.06
[7], 0.00457 µM	1.01
[7], 0.01372 µM	1.073
[7], 0.04115 µM	1.08
[7], 0.1235 µM	1.068
[7], 0.3704 µM	1.07
[7], 1.111 µM	0.998
[7], 3.333 µM	1.01
[7], 10 µM	0.934
[8], 0.00017 µM	1.04
[8], 0.00051 µM	1.05
[8], 0.00152 µM	1.04
[8], 0.00457 µM	1.06
[8], 0.01372 µM	1.05
[8], 0.04115 µM	1.05
[8], 0.1235 µM	1.02
[8], 0.3704 µM	1.04
[8], 1.111 µM	1.06
[8], 3.333 µM	1.03
[8], 10 µM	1.02
[9], 0.00017 µM	1.08
[9], 0.00051 µM	1.05
[9], 0.00152 µM	1.07
[9], 0.00457 µM	1.07
[9], 0.01372 µM	1.07
[9], 0.04115 µM	1.06
[9], 0.1235 µM	1.04
[9], 0.3704 µM	1.09
[9], 1.111 µM	1.05
[9], 3.333 µM	1.033
[9], 10 µM	0.998
[10], 0.00017 µM	1.172
[10], 0.00051 µM	1.18
[10], 0.00152 µM	1.2
[10], 0.00457 µM	1.19
[10], 0.01372 µM	1.2
[10], 0.04115 µM	1.18
[10], 0.1235 µM	1.18
[10], 0.3704 µM	1.18
[10], 1.111 µM	1.17
[10], 3.333 µM	1.16
[10], 10 µM	1.13
[11], 0.00017 µM	1.09
[11], 0.00051 µM	1.1
[11], 0.00152 µM	1.1
[11], 0.00457 µM	1.06
[11], 0.01372 µM	1.08
[11], 0.04115 µM	1.07
[11], 0.1235 µM	1.08
[11], 0.3704 µM	1.08
[11], 1.111 µM	1.05
[11], 3.333 µM	1.04
[11], 10 µM	1.01
[12], 0.00017 µM	1.09
[12], 0.00051 µM	1.1
[12], 0.00152 µM	1.13
[12], 0.00457 µM	1.124
[12], 0.01372 µM	1.15
[12], 0.04115 µM	1.08
[12], 0.1235 µM	1.12
[12], 0.3704 µM	1.15
[12], 1.111 µM	1.1
[12], 3.333 µM	1.15
[12], 10 µM	1.14

CN(C)CCCOc1ccc(-c2ccc3ncc4c(c3c2)n(C2CCOCC2)c(=O)n4C)cn1 [AZD-0156]
Conditions	relative viability
[1], 0.00017 µM	1.06
[1], 0.00051 µM	1.05
[1], 0.00152 µM	1.06
[1], 0.00457 µM	1.03
[1], 0.01372 µM	0.941
[1], 0.04115 µM	0.892
[1], 0.1235 µM	0.808
[1], 0.3704 µM	0.654
[1], 1.111 µM	0.476
[1], 3.333 µM	0.398
[1], 10 µM	0.26
[2], 0.00017 µM	1
[2], 0.00051 µM	1.01
[2], 0.00152 µM	0.983
[2], 0.00457 µM	0.949
[2], 0.01372 µM	0.869
[2], 0.04115 µM	0.891
[2], 0.1235 µM	0.737
[2], 0.3704 µM	0.701
[2], 1.111 µM	0.534
[2], 3.333 µM	0.526
[2], 10 µM	0.259
[3], 0.00017 µM	1.1
[3], 0.00051 µM	1.107
[3], 0.00152 µM	1.09
[3], 0.00457 µM	1.1
[3], 0.01372 µM	1.09
[3], 0.04115 µM	1.088
[3], 0.1235 µM	1.11
[3], 0.3704 µM	1.09
[3], 1.111 µM	1.03
[3], 3.333 µM	1.02
[3], 10 µM	0.764
[4], 0.00017 µM	1
[4], 0.00051 µM	1.02
[4], 0.00152 µM	1.01
[4], 0.00457 µM	0.968
[4], 0.01372 µM	0.937
[4], 0.04115 µM	0.9191
[4], 0.1235 µM	0.857
[4], 0.3704 µM	0.833
[4], 1.111 µM	0.766
[4], 3.333 µM	0.758
[4], 10 µM	0.519
[5], 0.00017 µM	1.08
[5], 0.00051 µM	1.1
[5], 0.00152 µM	1.07
[5], 0.00457 µM	1.1
[5], 0.01372 µM	1.04
[5], 0.04115 µM	1.01
[5], 0.1235 µM	0.919
[5], 0.3704 µM	0.84
[5], 1.111 µM	0.704
[5], 3.333 µM	0.766
[5], 10 µM	0.628
[6], 0.00017 µM	1.023
[6], 0.00051 µM	1.02
[6], 0.00152 µM	0.955
[6], 0.00457 µM	1.02
[6], 0.01372 µM	0.935
[6], 0.04115 µM	0.97
[6], 0.1235 µM	0.901
[6], 0.3704 µM	0.813
[6], 1.111 µM	0.716
[6], 3.333 µM	0.848
[6], 10 µM	0.654
[7], 0.00017 µM	1.07
[7], 0.00051 µM	1.06
[7], 0.00152 µM	0.963
[7], 0.00457 µM	1
[7], 0.01372 µM	0.828
[7], 0.04115 µM	0.815
[7], 0.1235 µM	0.734
[7], 0.3704 µM	0.643
[7], 1.111 µM	0.59
[7], 3.333 µM	0.626
[7], 10 µM	0.522
[8], 0.00017 µM	1.08
[8], 0.00051 µM	1.06
[8], 0.00152 µM	1.06
[8], 0.00457 µM	1.05
[8], 0.01372 µM	1.06
[8], 0.04115 µM	1.05
[8], 0.1235 µM	1.03
[8], 0.3704 µM	1.01
[8], 1.111 µM	0.968
[8], 3.333 µM	1.01
[8], 10 µM	0.9515
[9], 0.00017 µM	0.969
[9], 0.00051 µM	1.01
[9], 0.00152 µM	0.962
[9], 0.00457 µM	0.976
[9], 0.01372 µM	0.891
[9], 0.04115 µM	0.881
[9], 0.1235 µM	0.7368
[9], 0.3704 µM	0.743
[9], 1.111 µM	0.665
[9], 3.333 µM	0.7995
[9], 10 µM	0.674
[10], 0.00017 µM	1.16
[10], 0.00051 µM	1.17
[10], 0.00152 µM	1.17
[10], 0.00457 µM	1.19
[10], 0.01372 µM	1.13
[10], 0.04115 µM	1.16
[10], 0.1235 µM	0.994
[10], 0.3704 µM	0.963
[10], 1.111 µM	0.835
[10], 3.333 µM	0.918
[10], 10 µM	0.788
[11], 0.00017 µM	1.118
[11], 0.00051 µM	1.11
[11], 0.00152 µM	1.09
[11], 0.00457 µM	1.09
[11], 0.01372 µM	1.04
[11], 0.04115 µM	0.949
[11], 0.1235 µM	0.81
[11], 0.3704 µM	0.674
[11], 1.111 µM	0.462
[11], 3.333 µM	0.453
[11], 10 µM	0.348
[12], 0.00017 µM	1.04
[12], 0.00051 µM	1.08
[12], 0.00152 µM	1.07
[12], 0.00457 µM	1.1
[12], 0.01372 µM	1.08
[12], 0.04115 µM	1.11
[12], 0.1235 µM	1.07
[12], 0.3704 µM	1.076
[12], 1.111 µM	0.949
[12], 3.333 µM	0.592
[12], 10 µM	0.536
